Assay: xn = mol fraction of the nth substance listed, in the solute-free solvent

S=c1[nH]ncs1 + CCO + O
solubility (g/100 g solution)
Conditions	278.15 K	283.15 K	288.15 K	293.15 K	298.15 K	303.15 K	308.15 K	313.15 K	318.15 K	323.15 K
x2 = 0.1	0.653	0.91	1.26	1.71	2.24	2.97	3.91	5.01	6.49	7.94
x2 = 0.2	1.93	2.6	3.27	4.16	5.3	6.67	8.34	10.5	12.8	15.2
x2 = 0.3	3.54	4.46	5.7	7.08	8.6	10.7	12.9	15.5	18.5	21.9
x2 = 0.4	5.21	6.58	8.06	9.53	11.3	13.6	16.1	18.9	22.3	26
x2 = 0.5	6.64	8	9.61	11.3	13.3	15.6	18.1	21.1	24.5	28.1
x2 = 0.6	7.53	8.92	10.7	12.4	14.4	16.5	19.2	22.3	25.4	28.5
x2 = 0.7	8.26	9.5	11.2	13.1	15	17.1	19.5	22.4	25.4	28
x2 = 0.8	8.41	10.1	11.6	13.3	15	17.2	19.5	22.1	25	27.6
x2 = 0.9	8.73	10.2	11.8	13.3	15.1	16.9	19.1	21.6	23.9	26.6

c1ccc2[nH]c(-c3cscn3)nc2c1 + CO + O
solubility (g/100 g solution)
Conditions	283.15 K	288.15 K	293.15 K	298.15 K	303.15 K	308.15 K	313.15 K	318.15 K	323.15 K
x2 = 0.05881	0.00229	0.00287	0.00369	0.00466	0.00574	0.00699	0.00862	0.0104	0.0128
x2 = 0.1233	0.0131	0.0159	0.0194	0.0238	0.0278	0.0335	0.0401	0.0473	0.0561
x2 = 0.1942	0.0339	0.0408	0.0481	0.0566	0.0663	0.0786	0.0909	0.105	0.122
x2 = 0.2727	0.0719	0.0844	0.101	0.119	0.139	0.161	0.187	0.216	0.246
x2 = 0.3599	0.131	0.154	0.181	0.206	0.242	0.278	0.317	0.364	0.412
x2 = 0.4576	0.21	0.243	0.283	0.328	0.368	0.419	0.477	0.541	0.616
x2 = 0.5675	0.329	0.373	0.425	0.486	0.554	0.62	0.697	0.779	0.874
x2 = 0.6923	0.478	0.542	0.614	0.69	0.779	0.87	0.967	1.07	1.19
x2 = 0.835	0.643	0.725	0.815	0.914	1.02	1.13	1.25	1.38	1.52
